This passage reports Effectiveness control results from US20220151229A1, “Synergistic Herbicidal Combinations” (Clariant International Ltd., priority 2019, published 2022).

Holding throughout (format): in vivo
For one assay, the system named is Brassica napus - BRSNW. The assay is described as follows: Greenhouse post-emergence herbicide trial, Brassica napus. The following applies: 200 L/ha, Iodosulfuron-methyl-sodium 10 g Al/ha. The source says: (§1) Standard post emergence herbicide application procedures were used, as described below, to apply inventive compounds in combination with sulfonylurea herbicides.
(§2) Seed of monocotyledonous and dicotyledonous harmful plants such as Brassica napus (BRSNW) Abutilon theophrasti (ABUTH), Alopecurus myosuroides (ALOMY), Amaranthus retroflexus (AMARE), Digitaria Sanguinalis (DIGSA), Echinochloa crus-galli (ECHCG), Erigeron canadensis (ERICA), Galium aparine (GALAP), Lolium perenne (LOLPE), Sectaria viridis (SETVI), Solanun nigrum (SOLNI), Viola arvensis (VIOAR) were sowed in 18 cm^2 pots. The plants were placed in a greenhouse under controlled environmental conditions, and sub-irrigation. About one week after emergence, seedlings were thinned as needed, including removal of any unhealthy or abnormal plants, to create a uniform series of test pots.
(§3) The plants were maintained for the duration of the test in the greenhouse, where they received a mean of 70 μmol m-2 s-1 of light per day/night. Temperatures averages about 24° C. during the day and about 20° C. during the night. Plants were sub-irrigated throughout the test to ensure adequate soil moisture levels.
(§4) Pots were assigned to different treatment in a randomized experimental design. A set of pots was left untreated as a reference against which effects of the treatments could later be evaluated. Application of tested formulations was made in a spray cabin model 01S-15E designed by CheckTec using the following parameters: • Two edge nozzle Lechler OC2, 200 L/ha, 3 bars. • Two edge nozzle Lechler OC3, 500 L/ha, 3 bars.
(§5) The distance of the nozzle from the plants was between 50 to 53 cm. and the nozzle spacing was 50 cm.
(§6) After treatment, pots were returned to the greenhouse until ready for evaluation. Evaluations were performed at different times after application (DAT: days after treatment), depending on the experiment.
(§7) For evaluation of herbicidal effectiveness, all plants in the test were examined by a single technician, who recorded percent control, a visual measurement of the effectiveness of each treatment by comparison with untreated plants. […] The reported % control values represent the average for all replicates of each treatment.
(§8) Iodosulfuron-methyl-sodium and Nicosulfuron were applied as dilutions of the active ingredient in water.

The subject of another assay is Lolium perenne - LOLPE. The assay is described as follows: Greenhouse post-emergence herbicide trial, Lolium perenne. The note with it: 200 L/ha, Iodosulfuron-methyl-sodium 10 g Al/ha.
Text: as §1, §2, §3, §4, §5, §6, §7, §8

For the next assay, the system named is Solanum nigrum - SOLNI. The assay is described as follows: Greenhouse post-emergence herbicide trial, Solanum nigrum. The note with it: Iodosulfuron-methyl-sodium 10 g Al/ha.
Text: as §1, §2, §3, §4, §5, §6, §7, §8

A further assay deals with Sectaria Viridis - SETVI. The assay is described as follows: Greenhouse post-emergence herbicide trial, Sectaria Viridis. The note with it: 200 L/ha, Nicosulfuron 40 g Al/ha.
Text: as §1, §2, §3, §4, §5, §6, §7, §8

The subject of another assay is Galium aparine - GALAP. The assay is described as follows: Greenhouse post-emergence herbicide trial, Galium aparine. The note with it: 200 L/ha, Nicosulfuron 40 g Al/ha.
Text: as §1, §2, §3, §4, §5, §6, §7, §8

SMILES strings stand for the structures.

As to `COC(=O)c1ccc(I)cc1S(=O)(=O)[N-]C(=O)Nc1nc(C)nc(OC)n1.[Na+]` [Iodosulfuron-methyl-sodium, reference compound], the Effectiveness control in the assay with Brassica napus - BRSNW (1 DAT) came to 0.00%; with Brassica napus - BRSNW (2 DAT), 0.00%; with Brassica napus - BRSNW (7 DAT), 6.75%; in the assay with Brassica napus - BRSNW (10 DAT), 8.50%; with Brassica napus - BRSNW (16 DAT), 50.75%; in the assay on Brassica napus - BRSNW (22 DAT) it was 99.00%. Besides, the Effectiveness control in the assay on Brassica napus - BRSNW (28 DAT) is 99.00%; in the assay on Lolium perenne - LOLPE (1 DAT), 0.00%; with Lolium perenne - LOLPE (2 DAT) it was 0.00%; with Lolium perenne - LOLPE (7 DAT), 0.00%; in the assay on Lolium perenne - LOLPE (10 DAT), 0.00%; in the assay on Lolium perenne - LOLPE (16 DAT) it was 0.00%. The Effectiveness control in the assay on Lolium perenne - LOLPE (22 DAT) is reported as 0.00%; in the assay on Lolium perenne - LOLPE (28 DAT), 0.00%; with Solanum nigrum - SOLNI (200 L/ha, 1 DAT), 0.00%; in the assay with Solanum nigrum - SOLNI (200 L/ha, 2 DAT) it was 0.00%; with Solanum nigrum - SOLNI (200 L/ha, 7 DAT), 0.00%; with Solanum nigrum - SOLNI (200 L/ha, 15 DAT), 12.50%. The Effectiveness control in the assay with Solanum nigrum - SOLNI (200 L/ha, 21 DAT) turned out to be 13.75%; with Solanum nigrum - SOLNI (500 L/ha, 1 DAT), 0.00%; in the assay on Solanum nigrum - SOLNI (500 L/ha, 2 DAT), 0.000%; in the assay with Solanum nigrum - SOLNI (500 L/ha, 7 DAT), 5.00%; in the assay with Solanum nigrum - SOLNI (500 L/ha, 15 DAT), 25.00%; in the assay on Solanum nigrum - SOLNI (500 L/ha, 21 DAT), 47.50%.
In the case of `COc1cc(OC)nc(NC(=O)NS(=O)(=O)c2ncccc2C(=O)N(C)C)n1` [Nicosulfuron, nicosulfuron, reference compound], the Effectiveness control amounted to 0.00% with Sectaria Viridis - SETVI (1 DAT); 0.00% in the assay on Sectaria Viridis - SETVI (2 DAT); 5.00% in the assay on Sectaria Viridis - SETVI (7 DAT); 7.00% in the assay with Sectaria Viridis - SETVI (10 DAT); 10.75% in the assay on Sectaria Viridis - SETVI (16 DAT); 7.75% with Sectaria Viridis - SETVI (22 DAT). Also, the Effectiveness control in the assay with Sectaria Viridis - SETVI (28 DAT) is listed as 7.00%; in the assay with Galium aparine - GALAP (1 DAT), 0.00%; in the assay on Galium aparine - GALAP (2 DAT), 0.00%; in the assay on Galium aparine - GALAP (7 DAT) it was 3.00%; with Galium aparine - GALAP (10 DAT), 10.00%; with Galium aparine - GALAP (16 DAT), 12.75%. Also, the Effectiveness control in the assay with Galium aparine - GALAP (22 DAT) and with Galium aparine - GALAP (28 DAT) was 12.75% throughout.
